Literature values, collected in patent US20170273935A1, “CINEOLE-CONTAINING COMPOSITION FOR NASAL APPLICATION” (Maria Clementine Martin Klosterfrau Vertriebsgesellschaft …, priority 2014, published 2017).

Compound: CC12CCC(CC1)C(C)(C)O2 [1,8-cineole, 1,3,3-trimethyl-2-oxabicyclo[2.2.2]octane]
- solubility in water: insoluble in water
